Results published in ChEMBL document CHEMBL1201862, “PubChem BioAssay data set” (2004).
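Each compound was tested at five concentrations against cells in 96-well plates for 48 hours. GI50: concentration for 50% inhibition of growth.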 Calls of active or inactive are those of the source. Cut-off read from the data, not from the text of the source: active = GI50 up to about 1.1 µM and inactive = higher.

Assays:
Test in all cases: NCI tumour cell line growth inhibition, 48 h
ACHN = tested on: ACHN
HCC 2998 = tested on: HCC 2998
HCT-116 = tested on: HCT-116
K562 = tested on: K562
MCF7 = tested on: MCF7
Malme-3M = tested on: Malme-3M
NCI-H522 = tested on: NCI-H522
OVCAR-3 = tested on: OVCAR-3
SF-268 = tested on: SF-268
SF-539 = tested on: SF-539
SK-MEL-2 = tested on: SK-MEL-2
SK-OV-3 = tested on: SK-OV-3
SNB-75 = tested on: SNB-75
TK-10 = tested on: TK-10
UACC-257 = tested on: UACC-257
Hs-578T = tested on: Hs-578T
OVCAR-4 = tested on: OVCAR-4
SK-MEL-28 = tested on: SK-MEL-28
HOP-92 = tested on: HOP-92
SR = tested on: SR

Measured: GI50

O=c1c2c(oc3ccccc13)-c1ccccc1OC2
inactive: ACHN 35.7 µM | HCC 2998 > 100 µM | HCT-116 29.9 µM | K562 > 100 µM | MCF7 > 100 µM | Malme-3M > 100 µM | NCI-H522 > 100 µM | OVCAR-3 > 100 µM | SF-268 57.9 µM | SF-539 25.2 µM | SK-MEL-2 > 100 µM | SK-OV-3 20.2 µM | SNB-75 16.7 µM | TK-10 > 100 µM | UACC-257 > 100 µM

O=[N+]([O-])C(/C(Cl)=C(/Cl)N1CCOCC1)=C1\NCCO1
inactive: ACHN > 100 µM | HCC 2998 > 100 µM | HCT-116 > 100 µM | Hs-578T > 100 µM | MCF7 > 100 µM | Malme-3M > 100 µM | OVCAR-3 > 100 µM | OVCAR-4 > 100 µM | SF-268 > 100 µM | SF-539 > 100 µM | SK-MEL-28 > 100 µM | SK-MEL-2 > 100 µM | SK-OV-3 > 100 µM | SNB-75 > 100 µM | UACC-257 > 100 µM

O=C1c2ccccc2C(=O)c2nc3ccc(Cl)cc3cc21
inactive: ACHN > 100 µM | HCC 2998 > 100 µM | HCT-116 > 100 µM | HOP-92 > 100 µM | K562 > 100 µM | Malme-3M > 100 µM | NCI-H522 > 100 µM | OVCAR-3 > 100 µM | OVCAR-4 > 100 µM | SF-268 > 100 µM | SF-539 > 100 µM | SK-MEL-28 > 100 µM | SK-MEL-2 > 100 µM | SK-OV-3 > 100 µM | SNB-75 > 100 µM | SR > 100 µM | TK-10 > 100 µM

CCCCCCCCOCC1S(=O)(=O)OCCOS1(=O)=O
inactive: ACHN > 100 µM | HCC 2998 > 100 µM | HCT-116 > 100 µM | HOP-92 > 100 µM | Hs-578T > 100 µM | K562 > 100 µM | Malme-3M > 100 µM | NCI-H522 > 100 µM | OVCAR-3 > 100 µM | OVCAR-4 > 100 µM | SF-268 > 100 µM | SF-539 > 100 µM | SK-MEL-28 > 100 µM | SK-MEL-2 > 100 µM | SK-OV-3 > 100 µM | SNB-75 > 100 µM | SR 40.4 µM | TK-10 > 100 µM | UACC-257 > 100 µM

CC(=O)OCC1=CC2CCC3C(C)(CCC[C@]3(C)COC(C)=O)C23CC[C@H]1C3 (some centres undefined)
inactive: ACHN 73.1 µM | HCC 2998 22.3 µM | HCT-116 38.8 µM | HOP-92 27.8 µM | K562 27.2 µM | Malme-3M 52.8 µM | NCI-H522 18.8 µM | OVCAR-3 31.9 µM | OVCAR-4 30.1 µM | SF-268 > 100 µM | SF-539 40.3 µM | SK-MEL-28 > 100 µM | SK-MEL-2 33.8 µM | SK-OV-3 64.7 µM | SNB-75 34.9 µM | SR 27.5 µM | TK-10 > 100 µM | UACC-257 37.7 µM

CC1=NC(C)(C)N(O)C1(C)C
inactive: ACHN > 100 µM | HCC 2998 > 100 µM | HCT-116 > 100 µM | HOP-92 > 100 µM | K562 > 100 µM | MCF7 > 100 µM | Malme-3M > 100 µM | NCI-H522 > 100 µM | OVCAR-3 > 100 µM | OVCAR-4 > 100 µM | SF-268 > 100 µM | SF-539 > 100 µM | SK-MEL-28 > 100 µM | SK-MEL-2 > 100 µM | SK-OV-3 > 100 µM | SNB-75 > 100 µM | SR > 100 µM | TK-10 > 100 µM

CC(C)(C)[C@H]1NC(=O)CN1C(=O)OCc1ccccc1
inactive: ACHN 82.2 µM | HCC 2998 > 100 µM | HCT-116 67.3 µM | HOP-92 5.12 µM | K562 66.7 µM | MCF7 > 100 µM | Malme-3M > 100 µM | NCI-H522 > 100 µM | OVCAR-4 > 100 µM | SF-268 8.07 µM | SF-539 > 100 µM | SK-MEL-28 > 100 µM | SK-MEL-2 > 100 µM | SK-OV-3 > 100 µM | SNB-75 > 100 µM | SR 20 µM | TK-10 > 100 µM | UACC-257 98.9 µM

CC(=O)OCC1OC(n2c3c(c(-c4ccc(Cl)cc4)c(C#N)c2=S)CCCC3)C(OC(C)=O)C(OC(C)=O)C1OC(C)=O (centres undefined)
inactive: ACHN 43.8 µM | HCC 2998 > 100 µM | HCT-116 33.3 µM | HOP-92 7.29 µM | K562 44 µM | MCF7 > 100 µM | Malme-3M 56.8 µM | NCI-H522 40.7 µM | OVCAR-3 21.7 µM | OVCAR-4 25.5 µM | SF-268 96.6 µM | SF-539 74.5 µM | SK-MEL-28 32.4 µM | SK-MEL-2 30.6 µM | SK-OV-3 75.2 µM | SNB-75 15.3 µM | SR > 100 µM | TK-10 44.9 µM | UACC-257 51.9 µM
